Measured values taken from patent US8105567B2, “Multidentate AZA ligands able to complex metal ions and the use thereof in diagnostics and therapy” (Bracco Imaging SpA, priority 2001, dated 2012).

Legend:
[1] = Affinity for lactate ions (titration of 1 mM Gd(III) complex, ternary complex formation); assay type: physicochemical; details: for KA (association constant) with lactate ions: titration with lactate ions
Procedure: (§1) A test, to further evaluate the lack of formation of ternary complexes was performed. As a non-limiting example, we measured the affinity of the compound of example 1 for lactate and phosphate ions. The determination was performed directly by adding increasing amounts of each anion to a 1 mM solution of the Gd(III) complex.
Conversely analogous titrations of Gd-DO3A and Gd-DO3MA (both endowed with q=2) with lactate ions yielded KA values of 150 M^−1 and 110 M^−1, respectively.

[2] = system: PC-3 tumors; experiment: Biodistribution and tumor targeting of 177Lu complexes in the human PC-3 nude mouse model; assay type: in vivo; details: 177Lu complex
Procedure: For biodistribution studies, the radiolabeled compounds were prepared as described above except that a 1:1 molar ratio of ligand to Lutetium was used to guarantee complete chelation of all starting ligand. […] The remaining solution was further diluted to the required radioconcentration using Bacteriostatic saline/ASCOR L500® Ascorbic Acid Injection USP mixed in a 9 to 1 [v/v]) ratio.
10-50 μCi of the HPLC purified compounds were administered to each mouse by i.v. tail vein injection, n=4 per group. At 1 h, 1 and 7 days post injection, the mice were terminated and the organs and tissues were harvested. Radioactivity was assayed in a gamma counter. The data was expressed as percentage of the total administered radioactivity (% ID) for the urine combined with the bladder, as well as for the blood pool; and percentage of the total administered radioactivity per gram (% ID/g) for all the other tested organs

[3] = NMRD profile fitting (molecular reorientational time); assay type: physicochemical; details: calculated from fitting of the NMRD profile
[4] = Exchange time (tM) by transverse water 17O NMR relaxation time at variable temperature; assay type: physicochemical; details: 298 K
Source text: The exchange time (tM) value of the Gd(III) complex of the example 1 has been assessed by measuring the transverse water ^17O NMR relaxation time at variable temperature according to the procedure described by Aime et al., in the above cited literature.
Obtained value turned out to be 90 ns at 298 K. Albeit the optimal value (about 30 ns) has not been attained, this exchange rate can be considered quite fast, especially if compared with that of (Gd-DO3A), the Gd(III) complex of reference, with two water molecules in the inner sphere, whose tM value is 160 ns.

[5] = Potentiometric measurements: Gd complexation constant; assay type: physicochemical
Procedure: (§2) All the pH metric measurements (pH=−log [H^+]) were carried out in degassed 0.1 mol dm^−3 NMe4NO3 solutions, at 298.1 K, by using a Metrohm 670 Titroprocessor equipped with a Metrohm 6.0203.100 combined pH electrode. Prior to each potentiometric titration, the combined Metrohm electrode was calibrated as a hydrogen concentration probe by titrating known amounts of HCl with CO2-free NMe4OH solutions and determining the equivalent point by the Gran's method which allows to determine the standard potential E^o, and the ionic product of water. In the complexation experiments the metal ion concentration was about 80% of the ligand concentration. At least three measurements (about 100 data points each one) were performed for each system in the pH range 2.5-10.5 and the relevant e.m.f. data were treated by means of the computer programs […] and […] which furnished the protonation and the complexation constants.

[6] = Affinity for phosphate ions (titration of 1 mM Gd(III) complex, ternary complex formation); assay type: physicochemical; details: increasing amounts of anion added to 1 mM complex, FIG. 4
Procedure: as §1

[7] = Relaxivity as a function of the pH; assay type: physicochemical; details: FIG. 3
Source text: The relaxivity of this complex was further tested as a function of the pH.

[8] = Relaxivity of the Gd(III) complex; assay type: physicochemical; details: 25° C., pH 7 and 20 MHz
Procedure: The relaxivity determined at 25° C., pH 7 and 20 MHz for said complex is 7.1 mM^−1 s^−1.

[9] = reference complex with two water molecules in the inner sphere; cited from earlier work
[10] = Potentiometric measurements: protonation constants of the ligand; assay type: physicochemical; details: 0.1 mol dm^−3 NMe4NO3, 298.1 K
Procedure: as §2

Question: With `CC(C(=O)[O-])N1CCNCCN(C(C)C(=O)[O-])CCN(C(C)C(=O)[O-])CC1.[Gd+3]` (stereo not drawn) [Gd-DO3MA, reference compound] as the molecule, how does the “KA (association constant) with lactate ions” value [1] read?
Answer: 110 M⁻¹

Question: Which results are given for `CC1(N(CC(=O)O)CC(=O)O)CN(CC(=O)O)[C@@H]2CCCC[C@H]2N(CC(=O)O)C1` [Compound 94]?
Answer: clearance of Lu-177 from the body (in words) ([2]; PC-3 nude mouse): rapidly cleared from the body with little residual localization in any organs or tissue; Blood 1 h % ID ([2]; i.v., 1 h post injection, blood): 0.39 ± 0.29 % ID; Blood 24 h % ID ([2]; i.v., 24 h post injection, blood): 0.01 ± 0.01 % ID; Blood 7 d % ID (*72 h timepoint) ([2]; i.v., 72 h timepoint, blood): 0.00 ± 0.00 % ID

Question: For “Gd(III) Complex of 1,4-Bis(carboxymethylmethyl)-6-[bis(hydroxycarbonyl-methyl)amino]-6-methylperhydro-1,4-diazepine [Gd(III) complex of Example 1]”, which “tR (molecular reorientational time)” value [3] is on record?
Answer: 80 ps

Question: What about the “exchange time (tM)” value [4] of the same molecule?
Answer: 90 ns

Question: What about the LogKGd ([5]; M + L = ML, 0.1 mol dm^−3 NMe4NO3, 298.1 K) of the same molecule?
Answer: 21.52 (1)

Question: And the “LogKGd (conditional, pH 7.4)” value ([5]; conditional, pH 7.4)?
Answer: LogKGd (conditional, pH 7.4) = 17.06

Question: What about the “interaction with phosphate ions” value [6] of the same molecule?
Answer: complete absence of interaction

Question: And the “interaction with lactate ions” value ([1]; increasing amounts of anion added to 1 mM complex, FIG. 4)?
Answer: complete absence of interaction

Question: And the “KA (association constant) with lactate ions” value [1]?
Answer: does not show any measurable association constant

Question: What about the “relaxation rate over the investigated pH range” value [7] of the same molecule?
Answer: substantially constant

Question: And the relaxivity [8]?
Answer: 7.1 mM⁻¹ s⁻¹

Question: What does the source list for `O=C([O-])CN1CCNCCN(CC(=O)[O-])CCN(CC(=O)[O-])CC1.[Gd+3]` [Gd-DO3A, reference compound]?
Answer: tM value (reference complex) [9]: 160 ns; KA (association constant) with lactate ions [1]: 150 M⁻¹

Question: Which results are given for `CC1(N(CC(=O)O)CC(=O)O)CN(CC(=O)O)CCN(CC(=O)O)C1` [Example 1, 1,4-Bis(carboxymethyl)-6-[bis(carboxymethyl)amino]-6-methyl-perhydro-1,4-diazepine]?
Answer: Log KH ([10]; H2L + H = H3L): 4.09 (3); Log KH ([10]; H3L + H = H4L): 2.60 (3); Log KH ([10]; H4L + H = H5L): 1.44 (4); Log KH ([10]; H + L = HL): 11.80 (2); Log KH ([10]; HL + H = H2L): 6.55 (2)
